From ChEMBL document CHEMBL1201862, “PubChem BioAssay data set” (2004)
Active and inactive are the calls of the source.

How the values were obtained:
[1] = molecular target: T1, Zinc finger protein mex-5 (Caenorhabditis elegans, UniProt Q9XUB2); experiment: MEX-5/TCR-2 RNA interaction inhibitors, dose response, biochemical, C. elegans, fluorescence polarization (AID 1960)
T1 sequence (Q9XUB2 whole entry): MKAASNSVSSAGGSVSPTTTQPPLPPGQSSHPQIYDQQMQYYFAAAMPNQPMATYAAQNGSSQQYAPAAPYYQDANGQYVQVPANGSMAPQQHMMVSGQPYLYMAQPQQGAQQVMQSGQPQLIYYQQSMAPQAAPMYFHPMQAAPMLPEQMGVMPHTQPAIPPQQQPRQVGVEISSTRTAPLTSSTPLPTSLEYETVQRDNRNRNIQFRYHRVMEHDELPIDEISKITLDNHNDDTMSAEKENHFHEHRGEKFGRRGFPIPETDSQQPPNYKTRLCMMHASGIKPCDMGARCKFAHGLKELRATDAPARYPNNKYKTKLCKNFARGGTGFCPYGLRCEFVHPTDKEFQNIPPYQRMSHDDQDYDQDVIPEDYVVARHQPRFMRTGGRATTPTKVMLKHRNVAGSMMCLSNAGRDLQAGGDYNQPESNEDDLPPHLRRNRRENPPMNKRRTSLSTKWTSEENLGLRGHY

[2] = molecular target: T2, RNA-binding protein pos-1 (Caenorhabditis elegans, UniProt G5EF15); experiment: inhibitors of POS-1/mex-3 RNA binding, dose response, biochemical, fluorescence polarization (AID 1964);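 note: purified POS-1 fused to maltose binding protein made in E. coli; potency of compounds blocking POS-1 binding to fluorescent RNA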
T2 sequence (G5EF15 whole entry): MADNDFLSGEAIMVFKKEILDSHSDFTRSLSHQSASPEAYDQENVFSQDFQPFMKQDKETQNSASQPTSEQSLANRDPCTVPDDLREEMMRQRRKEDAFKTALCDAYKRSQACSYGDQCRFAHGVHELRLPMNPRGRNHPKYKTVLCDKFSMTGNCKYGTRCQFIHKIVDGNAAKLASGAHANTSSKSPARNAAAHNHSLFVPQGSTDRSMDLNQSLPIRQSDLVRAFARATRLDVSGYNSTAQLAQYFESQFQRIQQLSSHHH

[3] = molecular target: T3, Replicative DNA helicase DnaB (Mycobacterium tuberculosis, UniProt P9WMR3); experiment: DnaB intein splicing inhibitors, dose response, biochemical, cell-free fluorescence (AID 449749); assay type: functional
T3 sequence (P9WMR3 whole entry): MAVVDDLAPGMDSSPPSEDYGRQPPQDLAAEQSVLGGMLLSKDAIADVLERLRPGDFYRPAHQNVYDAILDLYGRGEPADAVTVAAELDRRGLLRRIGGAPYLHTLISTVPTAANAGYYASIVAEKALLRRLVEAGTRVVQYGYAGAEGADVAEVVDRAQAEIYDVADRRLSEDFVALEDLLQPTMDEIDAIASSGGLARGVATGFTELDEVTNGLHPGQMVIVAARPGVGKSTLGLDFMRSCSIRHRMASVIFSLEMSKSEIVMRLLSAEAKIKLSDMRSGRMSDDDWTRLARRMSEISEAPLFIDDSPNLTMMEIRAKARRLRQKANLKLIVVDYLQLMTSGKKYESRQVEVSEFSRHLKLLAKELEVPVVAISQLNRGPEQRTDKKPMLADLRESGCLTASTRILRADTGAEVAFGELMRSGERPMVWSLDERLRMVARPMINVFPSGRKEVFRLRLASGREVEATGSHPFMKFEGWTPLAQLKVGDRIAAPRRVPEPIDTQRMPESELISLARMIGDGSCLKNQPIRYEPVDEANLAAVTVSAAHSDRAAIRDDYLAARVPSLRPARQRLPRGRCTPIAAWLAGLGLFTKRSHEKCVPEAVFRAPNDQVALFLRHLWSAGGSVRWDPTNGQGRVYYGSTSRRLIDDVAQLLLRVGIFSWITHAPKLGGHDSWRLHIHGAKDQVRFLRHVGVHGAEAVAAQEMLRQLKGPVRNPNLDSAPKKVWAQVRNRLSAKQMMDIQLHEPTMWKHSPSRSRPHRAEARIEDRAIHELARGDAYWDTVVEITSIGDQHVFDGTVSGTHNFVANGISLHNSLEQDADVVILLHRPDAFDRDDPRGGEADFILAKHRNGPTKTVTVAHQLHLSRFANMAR

[4] = molecular target: T4, Protein RecA (Mycobacterium tuberculosis, UniProt P9WHJ3); experiment: Fluorescence Cell-Free Homogeneous Dose Retest to Identify Inhibitors of RecA-Intein Splicing Activity. [Related pubchem assays (depositor defined):AID2097, AID2223, AID489010, AID492950]; assay type: functional
T4 sequence (P9WHJ3 whole entry): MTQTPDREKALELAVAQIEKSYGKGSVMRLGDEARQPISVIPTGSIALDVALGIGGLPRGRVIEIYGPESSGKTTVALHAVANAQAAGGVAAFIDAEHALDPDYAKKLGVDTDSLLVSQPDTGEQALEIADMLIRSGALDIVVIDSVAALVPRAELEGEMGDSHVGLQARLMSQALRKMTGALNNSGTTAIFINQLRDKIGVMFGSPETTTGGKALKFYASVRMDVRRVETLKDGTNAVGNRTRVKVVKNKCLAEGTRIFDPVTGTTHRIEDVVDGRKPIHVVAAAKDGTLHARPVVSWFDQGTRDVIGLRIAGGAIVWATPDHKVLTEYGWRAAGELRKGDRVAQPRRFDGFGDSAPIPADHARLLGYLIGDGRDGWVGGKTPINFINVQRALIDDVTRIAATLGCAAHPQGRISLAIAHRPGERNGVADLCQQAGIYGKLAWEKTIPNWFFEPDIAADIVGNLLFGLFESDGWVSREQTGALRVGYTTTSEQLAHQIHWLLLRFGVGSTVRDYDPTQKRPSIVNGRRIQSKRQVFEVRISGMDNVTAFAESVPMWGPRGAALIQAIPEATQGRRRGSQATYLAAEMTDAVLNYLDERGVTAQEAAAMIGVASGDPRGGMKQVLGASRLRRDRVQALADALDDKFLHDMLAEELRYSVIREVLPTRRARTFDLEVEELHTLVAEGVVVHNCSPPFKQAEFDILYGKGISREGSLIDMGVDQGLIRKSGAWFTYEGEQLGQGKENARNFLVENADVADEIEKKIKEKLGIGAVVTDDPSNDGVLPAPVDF

[5] = molecular target: T5, Rac GTPase-activating protein 1 (Homo sapiens, UniProt Q9H0H5); experiment: MgcRacGAP GTPase-activating activity inhibitors, confirmation, biochemical, ADP Hunter fluorescence, primary and confirmatory (AID 624330); assay type: functional
T5 sequence (Q9H0H5 whole entry): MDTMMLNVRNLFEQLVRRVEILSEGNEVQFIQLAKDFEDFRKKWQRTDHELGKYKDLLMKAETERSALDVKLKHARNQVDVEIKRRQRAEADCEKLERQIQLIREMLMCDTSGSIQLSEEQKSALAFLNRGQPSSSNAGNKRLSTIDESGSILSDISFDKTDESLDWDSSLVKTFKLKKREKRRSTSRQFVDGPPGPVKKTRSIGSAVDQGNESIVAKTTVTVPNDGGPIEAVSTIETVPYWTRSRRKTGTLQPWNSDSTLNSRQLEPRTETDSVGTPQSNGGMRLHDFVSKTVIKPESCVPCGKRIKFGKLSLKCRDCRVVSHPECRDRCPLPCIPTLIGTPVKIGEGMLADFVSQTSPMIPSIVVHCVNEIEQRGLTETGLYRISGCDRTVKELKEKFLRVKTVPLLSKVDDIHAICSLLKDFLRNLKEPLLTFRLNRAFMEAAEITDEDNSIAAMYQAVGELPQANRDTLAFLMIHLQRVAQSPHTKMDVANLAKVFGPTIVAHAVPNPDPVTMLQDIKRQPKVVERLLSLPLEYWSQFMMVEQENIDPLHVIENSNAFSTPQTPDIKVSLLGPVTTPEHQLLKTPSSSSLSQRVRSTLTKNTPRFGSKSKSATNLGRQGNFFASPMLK

[6] = molecular target: T6, Cytochrome P450 1A2 (Homo sapiens, UniProt P05177);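 note: PubChem cytochrome P450 panel assay, CYP1A2 panel member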
T6 sequence (P05177 whole entry): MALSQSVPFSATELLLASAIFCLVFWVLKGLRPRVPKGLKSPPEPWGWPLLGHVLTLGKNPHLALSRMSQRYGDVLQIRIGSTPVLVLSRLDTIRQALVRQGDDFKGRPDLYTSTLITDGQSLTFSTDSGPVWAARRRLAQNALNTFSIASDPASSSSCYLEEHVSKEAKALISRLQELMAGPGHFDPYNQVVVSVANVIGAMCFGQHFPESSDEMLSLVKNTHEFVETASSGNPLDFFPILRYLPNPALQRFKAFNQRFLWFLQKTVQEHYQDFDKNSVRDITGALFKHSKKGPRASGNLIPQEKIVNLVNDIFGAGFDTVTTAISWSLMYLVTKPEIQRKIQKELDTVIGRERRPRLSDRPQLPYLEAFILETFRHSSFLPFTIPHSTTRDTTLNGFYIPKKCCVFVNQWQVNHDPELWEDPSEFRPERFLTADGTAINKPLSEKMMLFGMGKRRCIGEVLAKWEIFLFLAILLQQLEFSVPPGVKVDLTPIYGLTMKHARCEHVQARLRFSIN

[7] = molecular target: Cytochrome P450 2C9 (Homo sapiens, UniProt P11712)
[8] = molecular target: Cytochrome P450 3A4 (Homo sapiens, UniProt P08684);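 note: CYP3A4 tested as one member of a cytochrome P450 panel screen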
[9] = molecular target: Cytochrome P450 2D6 (Homo sapiens, UniProt P10635);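 note: CYP2D6 member of a cytochrome P450 panel assay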
[10] = Luminescence Cell-Based Dose Retest to Confirm Inhibitors of Cancer Stem Cells. [Related pubchem assays (depositor defined):AID2717, AID2721]; assay type: functional; conditions: Homo sapiens
[11] = tested on: H4; experiment: Luminescence Cell-Based Dose Response HTS to Identify Activators of 5'UTR Stem-Loop Driven Prion Protein mRNA Translation in H4 Neuroglioblastoma Cells. [Related pubchem assays: 1829 (Project Summary), 1814 (Primary HTS)]; assay type: functional; conditions: Homo sapiens

Sequence of Cytochrome P450 2C9 (P11712 whole entry): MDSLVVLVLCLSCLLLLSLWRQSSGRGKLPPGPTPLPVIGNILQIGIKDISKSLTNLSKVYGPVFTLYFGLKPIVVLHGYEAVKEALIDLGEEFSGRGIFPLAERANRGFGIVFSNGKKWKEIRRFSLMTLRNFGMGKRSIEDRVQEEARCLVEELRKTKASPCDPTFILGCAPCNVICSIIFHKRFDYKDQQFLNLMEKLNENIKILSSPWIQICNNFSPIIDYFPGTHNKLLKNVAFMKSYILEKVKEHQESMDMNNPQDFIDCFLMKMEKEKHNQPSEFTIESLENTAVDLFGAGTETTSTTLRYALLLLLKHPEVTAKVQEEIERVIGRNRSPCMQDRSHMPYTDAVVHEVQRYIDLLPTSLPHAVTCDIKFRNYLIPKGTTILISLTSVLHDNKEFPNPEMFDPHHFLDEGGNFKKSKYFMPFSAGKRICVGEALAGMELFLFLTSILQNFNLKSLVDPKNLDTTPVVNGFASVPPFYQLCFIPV
Sequence of Cytochrome P450 3A4 (P08684 whole entry): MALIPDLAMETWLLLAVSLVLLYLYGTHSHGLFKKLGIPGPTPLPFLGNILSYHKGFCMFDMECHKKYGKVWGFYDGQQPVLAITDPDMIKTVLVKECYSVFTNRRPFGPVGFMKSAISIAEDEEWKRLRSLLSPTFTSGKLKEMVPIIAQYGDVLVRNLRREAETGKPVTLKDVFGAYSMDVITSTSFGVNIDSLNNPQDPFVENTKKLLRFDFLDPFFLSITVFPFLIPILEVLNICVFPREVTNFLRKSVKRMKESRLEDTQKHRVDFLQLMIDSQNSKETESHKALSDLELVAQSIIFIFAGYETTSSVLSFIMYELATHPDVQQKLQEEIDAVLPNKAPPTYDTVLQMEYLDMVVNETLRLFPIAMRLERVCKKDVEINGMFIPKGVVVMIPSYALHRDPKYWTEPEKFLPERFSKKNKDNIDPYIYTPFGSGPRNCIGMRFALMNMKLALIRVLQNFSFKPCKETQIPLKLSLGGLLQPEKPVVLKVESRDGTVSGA
Sequence of Cytochrome P450 2D6 (P10635 whole entry): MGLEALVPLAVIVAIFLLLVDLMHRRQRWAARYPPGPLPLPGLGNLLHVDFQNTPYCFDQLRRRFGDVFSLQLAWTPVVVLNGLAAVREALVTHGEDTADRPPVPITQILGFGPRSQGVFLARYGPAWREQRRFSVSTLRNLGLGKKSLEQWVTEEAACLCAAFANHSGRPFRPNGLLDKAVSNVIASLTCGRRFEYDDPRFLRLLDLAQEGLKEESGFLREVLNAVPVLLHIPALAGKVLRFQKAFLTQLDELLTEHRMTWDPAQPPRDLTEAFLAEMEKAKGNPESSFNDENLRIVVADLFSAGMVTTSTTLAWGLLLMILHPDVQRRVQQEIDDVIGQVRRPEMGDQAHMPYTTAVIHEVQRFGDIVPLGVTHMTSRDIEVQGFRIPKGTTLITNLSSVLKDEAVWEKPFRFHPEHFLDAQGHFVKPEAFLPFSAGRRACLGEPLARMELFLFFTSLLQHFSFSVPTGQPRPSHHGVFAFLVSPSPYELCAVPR

Row | Structure (SMILES) | EC50 [1] | EC50 [2] | AC50 [3] | EC50 [4] | other results
1 | CC(C)(C)N=C(S)NCCc1ccccc1 | > 300 µM (not active) | > 300 µM (inconclusive) |  |  | 
2 | CC1=NN(Cc2ccccc2)C(=O)C1 |  |  | 5.61 µM (active) | 1.88 µM (active) | 
3 | N#CC(C#N)=Cc1ccc(NC(=O)c2ccc(Br)cc2)cc1 | > 300 µM (not active) | > 300 µM (not active) |  |  | 
4 | N#C/C(=C/c1ccc2c(c1)OCO2)C(=O)Nc1ccc(O)cc1 |  |  | 19 µM (active) | 3.64 µM (active) | IC50 [5]: 55.4 µM (active)
5 | O=C(O)c1cccc(SSc2cccc(C(=O)O)c2)c1 |  |  |  |  | AC50 [6]: 5.01 µM (inconclusive); AC50 [7]: 2 µM (inconclusive)
6 | Cc1ccc(-c2ccc(CCC(=O)O)n2-c2cccc(C(=O)O)c2)cc1 | > 300 µM (not active) | > 300 µM (not active) |  |  | 
7 | CCc1n[nH]c2c1C(c1cccnc1)C(C#N)=C(N)O2 (stereo not given) |  |  | 24.4 µM (inconclusive) | 11.5 µM (active) | 
8 | CC1(C)CC(=O)C2=C(C1)OC(N)=C(C#N)[C@@]21C(=O)N(CC(N)=O)c2ccccc21 | > 300 µM (not active) | > 300 µM (not active) |  |  | 
9 | COc1cc(NC(=O)c2cc(Cl)ccc2Cl)ccc1-c1cc2ccccc2oc1=O |  |  |  |  | AC50 [8]: 1 µM (inconclusive); AC50 [9]: 25.1 µM (inconclusive); AC50 [6]: 12.6 µM (inconclusive)
10 | N#Cc1cccc(NC(=O)N2CCCC3(CCN(C(=O)c4cnccn4)CC3)C2)c1 |  |  |  |  | AC50 [8]: 15.8 µM (inconclusive); AC50 [6]: 20 µM (inconclusive)
11 | Cc1ccc(Nc2cc(C)nc3c(C)ccc([N+](=O)[O-])c23)cc1 |  |  | > 120 µM (inactive) | 2.34 µM (active) | 
12 | Cc1cc(C)cc(N2C(=O)/C(=C/Nc3ccc(N4CCOCC4)cc3)C(=O)NC2=S)c1 | 5.42 µM (inconclusive) | 7.92 µM (active) |  |  | 
13 | CCCCCc1cc(=O)oc2c(C(CCN3CCCC(C)C3)c3ccc4c(c3)OCO4)c(OC)cc(OC)c12 (stereo not given) |  |  | 5.31 µM (active) | 11.6 µM (active) | AC50 [10]: 6.14 µM (active)
14 | CS(=O)(=O)c1ccc(C(=O)OCc2nnc(-c3ccc(Cl)cc3)o2)cc1[N+](=O)[O-] |  |  | 2.2 µM (active) | 1.42 µM (active) | 
15 | Cc1ccc(C(=O)Nc2nc3ccccc3n2CCN2CCCC2)cc1 |  |  |  |  | EC50 [11]: 10.9 µM (active)
16 | CC1(OC(=O)C2CCCC2)C(=O)C=C2C=C(c3ccsc3)OC=C2C1=O (stereo not given) | 37.1 µM (active) | 47.8 µM (active) |  |  | 
17 | O=C1OCc2cc(-n3cccc3)ccc21 | > 300 µM (not active) | > 300 µM (not active) |  |  | 
18 | O=C(C1CCN(S(=O)(=O)c2cccc3nsnc23)CC1)N1CCn2c1nc1ccccc12 |  |  |  |  | AC50 [9]: 17.8 µM (inconclusive); AC50 [6]: 20 µM (inconclusive); AC50 [7]: 25.1 µM (inconclusive)
19 | CCOC(=O)C1Nc2ccc(OC(F)(F)F)cc2C2C=CCC12 (stereo not given) | > 300 µM (not active) | > 300 µM (not active) |  |  | 
20 | COc1ccc(C(=O)/C=C/c2ccc(N3CCCCC3)c([N+](=O)[O-])c2)c(OC)c1 | > 300 µM (not active) | > 300 µM (not active) |  |  | AC50 [10]: 4.31 µM (active)
21 | Cc1sc2nc(SCc3nc(-c4cccs4)no3)n(-c3ccccc3)c(=O)c2c1C |  |  |  |  | AC50 [6]: 14.1 µM (inconclusive); AC50 [7]: 0.501 µM (inconclusive)
22 | Cc1cccc(NC(=O)/C(C#N)=C\c2cc(C)n(-c3ccc(C(=O)O)cc3)c2C)c1 | > 300 µM (not active) | 84 µM (active) |  |  | 
23 | CCCc1n[nH]c2c1C(c1ccc(OC)c(Cn3nnc4ccccc43)c1)C(C#N)=C(N)O2 (stereo not given) |  |  | 19.7 µM (active) | 0.283 µM (active) | 
